Structures can show the parent of a compound that is named as a salt.
Target: Proton Pump (H^+/K^+-ATPase) (Sus scrofa, UniProt P19156)
Assay: Inhibitory effects on proton pump (H^+/K^+-ATPase) activity
Type: biochemical
Settings: hog gastric vesicles; K^+ stimulated H^+/K^+-ATPase activity; 30 minutes at 37° C.

Chain of Proton Pump (H^+/K^+-ATPase) (P19156 2-1034 limits assumed): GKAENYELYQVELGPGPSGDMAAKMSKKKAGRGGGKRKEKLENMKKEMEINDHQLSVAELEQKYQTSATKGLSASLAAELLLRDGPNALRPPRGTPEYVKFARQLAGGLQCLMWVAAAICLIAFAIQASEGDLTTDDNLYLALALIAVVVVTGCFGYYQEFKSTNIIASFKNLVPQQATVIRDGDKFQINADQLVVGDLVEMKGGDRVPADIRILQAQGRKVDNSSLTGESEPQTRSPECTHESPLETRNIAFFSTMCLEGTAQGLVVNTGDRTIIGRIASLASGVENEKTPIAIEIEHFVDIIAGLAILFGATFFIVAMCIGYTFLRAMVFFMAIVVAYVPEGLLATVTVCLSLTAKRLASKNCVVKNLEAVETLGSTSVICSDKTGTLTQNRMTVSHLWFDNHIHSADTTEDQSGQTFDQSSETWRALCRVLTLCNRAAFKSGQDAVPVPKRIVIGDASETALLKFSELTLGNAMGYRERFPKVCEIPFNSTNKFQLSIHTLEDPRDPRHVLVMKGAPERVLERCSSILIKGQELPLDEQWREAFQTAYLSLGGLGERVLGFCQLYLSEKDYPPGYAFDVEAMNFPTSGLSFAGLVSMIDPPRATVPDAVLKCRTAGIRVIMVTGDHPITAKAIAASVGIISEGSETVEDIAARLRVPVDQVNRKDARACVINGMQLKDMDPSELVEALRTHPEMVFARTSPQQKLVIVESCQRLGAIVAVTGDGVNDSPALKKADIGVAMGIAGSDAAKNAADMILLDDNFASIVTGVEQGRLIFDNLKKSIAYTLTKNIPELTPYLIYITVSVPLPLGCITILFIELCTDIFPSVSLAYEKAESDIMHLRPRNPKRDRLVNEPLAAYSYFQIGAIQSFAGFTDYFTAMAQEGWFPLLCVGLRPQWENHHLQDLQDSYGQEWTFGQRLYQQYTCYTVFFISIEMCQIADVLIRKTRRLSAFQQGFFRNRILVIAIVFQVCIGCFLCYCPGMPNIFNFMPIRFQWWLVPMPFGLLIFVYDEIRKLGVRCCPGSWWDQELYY
Chain of Proton Pump (H^+/K^+-ATPase) (P18434 whole entry partner): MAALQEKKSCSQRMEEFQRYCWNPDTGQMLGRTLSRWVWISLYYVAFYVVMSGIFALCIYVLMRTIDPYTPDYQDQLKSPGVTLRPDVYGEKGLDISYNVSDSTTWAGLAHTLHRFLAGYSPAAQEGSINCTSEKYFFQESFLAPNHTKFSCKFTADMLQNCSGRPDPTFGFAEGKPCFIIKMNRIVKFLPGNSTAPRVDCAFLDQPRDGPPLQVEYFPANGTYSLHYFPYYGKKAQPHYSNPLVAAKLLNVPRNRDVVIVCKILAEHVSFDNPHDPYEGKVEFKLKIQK

Question: How did the IC50 turn out when `Cc1[nH]c2c(-c3ccc(Cl)cc3)nccc2c1C` [Example 299, 7-(4-chlorophenyl)-2,3-dimethyl-1H-pyrrolo[2,3-c]pyridine hydrochloride] was run?
Answer: The IC50 was 350 nM.

Question: Which IC50 does the source give for `C=CCn1c(C)c(C)c2ccnc(-c3ccc(Cl)cc3)c21` [Example 300, 1-allyl-7-(4-chlorophenyl)-2,3-dimethyl-1H-pyrrolo[2,3-c]pyridine hydrochloride] here?
Answer: The IC50 was 173 nM.

Question: Which IC50 does the source give for `Cc1c(C)n(Cc2ccccc2)c2c(-c3ccc(Cl)cc3)nccc12` [Example 301, 1-benzyl-7-(4-chlorophenyl)-2,3-dimethyl-1H-pyrrolo[2,3-c]pyridine hydrochloride] here?
Answer: Its IC50 is 384 nM.

Question: How did the IC50 turn out when `Cc1c(C)n(CC(C)C)c2c(-c3ccc(Cl)cc3)nccc12` [Example 304, 7-(4-chlorophenyl)-1-isobutyl-2,3-dimethyl-1H-pyrrolo[2,3-c]pyridine hydrochloride] was run?
Answer: The IC50 was 915 nM.

Question: For `Cc1[nH]c2c(-c3ccc(F)cc3)nccc2c1C` [Example 325, 7-(4-fluorophenyl)-2,3-dimethyl-1H-pyrrolo[2,3-c]pyridine hydrochloride], which IC50 is on record?
Answer: The IC50 was 1980 nM.

Question: `C=CCn1c(C)c(C)c2ccnc(-c3ccc(F)cc3)c21` [Example 326, 1-allyl-7-(4-fluorophenyl)-2,3-dimethyl-1H-pyrrolo[2,3-c]pyridine hydrochloride] was tested. Which IC50 did it give?
Answer: Its IC50 is 306 nM.

Question: `COc1ccc(-c2nccc3c(C)c(C)n(Cc4ccccc4)c23)cc1` [Example 350, 1-benzyl-7-(4-methoxyphenyl)-2,3-dimethyl-1H-pyrrolo[2,3-c]pyridine hydrochloride] was tested. Which IC50 did it give?
Answer: The IC50 was 210 nM.

Question: With `COc1ccc(-c2nccc3c(C)c(C)n(Cc4ccccc4F)c23)cc1` [Example 353, 1-(2-fluorobenzyl)-7-(4-methoxyphenyl)-2,3-dimethyl-1H-pyrrolo[2,3-c]pyridine hydrochloride] as the molecule, how does the IC50 read?
Answer: Its IC50 is 490 nM.

Question: How did the IC50 turn out when `C#CCn1c(C)c(C)c2ccnc(-c3ccc(OC)cc3)c21` [Example 354, 7-(4-methoxyphenyl)-2,3-dimethyl-1-(prop-2-ynyl)-1H-pyrrolo[2,3-c]pyridine hydrochloride] was run?
Answer: Its IC50 is 150 nM.

Question: Which IC50 does the source give for `C=CCn1c(C)c(C)c2ccnc(-c3ccc(OC)cc3)c21` [Example 360, 1-allyl-7-(4-methoxyphenyl)-2,3-dimethyl-1H-pyrrolo[2,3-c]pyridine hydrochloride] here?
Answer: Its IC50 is 278 nM.

Question: How did the IC50 turn out when `Cc1c(C)n(CC2CC2)c2c(-c3ccc4ccccc4c3)nccc12` [Example 403, 1-cyclopropylmethyl-2,3-dimethyl-7-(naphthalen-2-yl)-1H-pyrrolo[2,3-c]pyridine hydrochloride] was run?
Answer: The IC50 was 70 nM.

Question: With `CCn1c(C)c(C)c2ccnc(-c3ccc4ccccc4c3)c21` [Example 404, 1-ethyl-2,3-dimethyl-7-(naphthalen-2-yl)-1H-pyrrolo[2,3-c]pyridine hydrochloride] as the molecule, how does the IC50 read?
Answer: Its IC50 is 95 nM.

Question: `Cc1c(C)n(Cc2cccc(F)c2)c2c(-c3ccc4ccccc4c3)nccc12` [Example 405, 1-(3-fluorobenzyl)-2,3-dimethyl-7-(naphthalen-2-yl)-1H-pyrrolo[2,3-c]pyridine hydrochloride] was tested. Which IC50 did it give?
Answer: Its IC50 is 73 nM.

Question: Which IC50 does the source give for `Cc1c(C)n(Cc2ccc(C(C)(C)C)cc2)c2c(-c3ccc4ccccc4c3)nccc12` [Example 406, 1-(4-tert-butylbenzyl)-2,3-dimethyl-7-(naphthalen-2-yl)-1H-pyrrolo[2,3-c]pyridine hydrochloride] here?
Answer: The IC50 was 189 nM.

Question: `CCCn1c(C)c(C)c2ccnc(-c3ccc4ccccc4c3)c21` [Example 407, 2,3-dimethyl-7-(naphthalen-2-yl)-1-propyl-1H-pyrrolo[2,3-c]pyridine hydrochloride] was tested. Which IC50 did it give?
Answer: Its IC50 is 113 nM.

Question: Which IC50 does the source give for `C#CCn1c(C)c(C)c2ccnc(-c3ccc4ccccc4c3)c21` [Example 408, 2,3-dimethyl-7-(naphthalen-2-yl)-1-(prop-2-ynyl)-1H-pyrrolo[2,3-c]pyridine hydrochloride] here?
Answer: Its IC50 is 89 nM.

Question: How did the IC50 turn out when `Cc1c(C)n(Cc2ccccc2F)c2c(-c3ccc4ccccc4c3)nccc12` [Example 409, 1-(2-fluorobenzyl)-2,3-dimethyl-7-(naphthalen-2-yl)-1H-pyrrolo[2,3-c]pyridine hydrochloride] was run?
Answer: Its IC50 is 93 nM.

Question: How did the IC50 turn out when `Cc1[nH]c2c(-c3ccc4ccccc4c3)nccc2c1C` [Example 410, 2,3-dimethyl-7-(naphthalen-2-yl)-1H-pyrrolo[2,3-c]pyridine sodium] was run?
Answer: The IC50 was 99 nM.

Question: Which IC50 does the source give for `Cc1c(CO)c2ccnc(-c3ccc4ccccc4c3)c2n1Cc1cccc(F)c1` [Example 411, 1-(3-fluorobenzyl)-3-hydroxymethyl-2-methyl-7-(naphthalen-2-yl)-1H-pyrrolo[2,3-c]pyridine hydrochloride] here?
Answer: The IC50 was 284 nM.

Question: `C=CCn1c(C)c(C)c2ccnc(C=Cc3ccccc3)c21` [Example 416, 1-allyl-2,3-dimethyl-7-styryl-1H-pyrrolo[2,3-c]pyridine hydrochloride] was tested. Which IC50 did it give?
Answer: The IC50 was 120 nM.

Question: For `Cc1ccc(Cn2c(C)c(C)c3ccnc(C=Cc4ccccc4)c32)cc1` [Example 417, 2,3-dimethyl-1-(4-methylbenzyl)-7-styryl-1H-pyrrolo[2,3-c]pyridine hydrochloride], which IC50 is on record?
Answer: The IC50 was 370 nM.

Question: `Cc1c(C)n(Cc2ccccc2)c2c(C=Cc3ccccc3)nccc12` [Example 418, 1-benzyl-2,3-dimethyl-7-styryl-1H-pyrrolo[2,3-c]pyridine hydrochloride] was tested. Which IC50 did it give?
Answer: The IC50 was 290 nM.

Question: `Cc1c(C)n(Cc2ccccc2)c2c(CCc3ccccc3)nccc12` [Example 442, 1-benzyl-2,3-dimethyl-7-phenethyl-1H-pyrrolo[2,3-c]pyridine hydrochloride] was tested. Which IC50 did it give?
Answer: Its IC50 is 100 nM.

Question: For `Cc1ccc(Cn2c(C)c(C)c3ccnc(CCc4ccccc4)c32)cc1` [Example 444, 2,3-dimethyl-1-(4-methylbenzyl)-7-phenethyl-1H-pyrrolo[2,3-c]pyridine hydrochloride], which IC50 is on record?
Answer: Its IC50 is 122 nM.

Question: Which IC50 does the source give for `COc1ccc(Cn2c(C)c(C)c3ccnc(CCc4ccccc4)c32)cc1` [Example 445, 1-(4-methoxybenzyl)-2,3-dimethyl-7-phenethyl-1H-pyrrolo[2,3-c]pyridine hydrochloride] here?
Answer: The IC50 was 460 nM.

Question: `Cc1c(C)n(Cc2ccc(Cl)cc2)c2c(CCc3ccccc3)nccc12` [Example 446, 1-(4-chlorobenzyl)-2,3-dimethyl-7-phenethyl-1H-pyrrolo[2,3-c]pyridine hydrochloride] was tested. Which IC50 did it give?
Answer: Its IC50 is 390 nM.

Question: How did the IC50 turn out when `Cc1c(C)n(CC(C)C)c2c(CCc3ccccc3)nccc12` [Example 447, 1-isobutyl-2,3-dimethyl-7-phenethyl-1H-pyrrolo[2,3-c]pyridine hydrochloride] was run?
Answer: Its IC50 is 460 nM.

Question: How did the IC50 turn out when `C=CCn1c(C)c(C)c2ccnc(CCc3ccccc3)c21` [Example 448, 1-allyl-2,3-dimethyl-7-phenethyl-1H-pyrrolo[2,3-c]pyridine hydrochloride] was run?
Answer: Its IC50 is 230 nM.

Question: How did the IC50 turn out when `Cc1c(C)n(Cc2cccc(F)c2)c2c(CCc3ccccc3)nccc12` [Example 449, 1-(3-fluorobenzyl)-2,3-dimethyl-7-phenethyl-1H-pyrrolo[2,3-c]pyridine hydrochloride] was run?
Answer: Its IC50 is 87 nM.

Question: Which IC50 does the source give for `Cc1c(C)n(Cc2ccccc2F)c2c(CCc3ccccc3)nccc12` [Example 450, 1-(2-fluorobenzyl)-2,3-dimethyl-7-phenethyl-1H-pyrrolo[2,3-c]pyridine hydrochloride] here?
Answer: The IC50 was 270 nM.

Question: How did the IC50 turn out when `Cc1c(C)n(CC2CC2)c2c(CCc3ccccc3)nccc12` [Example 453, 1-cyclopropylmethyl-2,3-dimethyl-7-phenethyl-1H-pyrrolo[2,3-c]pyridine hydrochloride] was run?
Answer: The IC50 was 340 nM.

Question: `Cc1c(C)n(Cc2ccc(F)cc2)c2c(CCc3ccccc3)nccc12` [Example 455, 1-(4-fluorobenzyl)-2,3-dimethyl-7-phenethyl-1H-pyrrolo[2,3-c]pyridine hydrochloride] was tested. Which IC50 did it give?
Answer: Its IC50 is 400 nM.

Question: For `Cc1c(C)n(Cc2ccc(F)cc2)c2c(N3CCc4ccccc4C3)nccc12` [Example 471, 1-(4-fluorobenzyl)-7-(1,2,3,4-tetrahydroisoquinolin-2-yl)-2,3-dimethyl-1H-pyrrolo[2,3-c]pyridine hydrochloride], which IC50 is on record?
Answer: The IC50 was 230 nM.

Question: For `CC(C)=CCn1c(C)c(C)c2ccnc(N3CCc4ccccc4C3)c21` [Example 475, 1-(3-methylbut-2-enyl)-7-(1,2,3,4-tetrahydroisoquinolin-2-yl)-2,3-dimethyl-1H-pyrrolo[2,3-c]pyridine hydrochloride], which IC50 is on record?
Answer: Its IC50 is 300 nM.

Question: With `Cc1c(C)n(Cc2ccc(OC(F)(F)F)cc2)c2c(N3CCc4ccccc4C3)nccc12` [Example 479, 1-(4-trifluoromethoxybenzyl)-7-(1,2,3,4-tetrahydroisoquinolin-2-yl)-2,3-dimethyl-1H-pyrrolo[2,3-c]pyridine hydrochloride] as the molecule, how does the IC50 read?
Answer: Its IC50 is 1140 nM.

Question: Which IC50 does the source give for `CCn1c(C)c(C)c2ccnc(N3CCc4ccccc4C3)c21` [Example 481, 1-ethyl-7-(1,2,3,4-tetrahydroisoquinolin-2-yl)-2,3-dimethyl-1H-pyrrolo[2,3-c]pyridine hydrochloride] here?
Answer: The IC50 was 59 nM.

Question: With `Cc1c(C)n(Cc2ccccc2F)c2c(N3CCc4ccccc4C3)nccc12` [Example 483, 1-(2-fluorobenzyl)-7-(1,2,3,4-tetrahydroisoquinolin-2-yl)-2,3-dimethyl-1H-pyrrolo[2,3-c]pyridine hydrochloride] as the molecule, how does the IC50 read?
Answer: The IC50 was 330 nM.

Question: With `C=CCn1c(C)c(C)c2ccnc(N3CCc4ccccc4C3)c21` [Example 485, 1-allyl-7-(1,2,3,4-tetrahydroisoquinolin-2-yl)-2,3-dimethyl-1H-pyrrolo[2,3-c]pyridine citrate] as the molecule, how does the IC50 read?
Answer: Its IC50 is 6 nM.

Question: How did the IC50 turn out when `C=CCn1c(C)c(C)c2ccnc(N3CCc4ccccc4C3)c21` [Example 486, 1-allyl-7-(1,2,3,4-tetrahydroisoquinolin-2-yl)-2,3-dimethyl-1H-pyrrolo[2,3-c]pyridine tartrate] was run?
Answer: Its IC50 is 8 nM.

Question: How did the IC50 turn out when `C=CCn1c(C)c(C)c2ccnc(N3CCc4ccccc4C3)c21` [Example 487, 1-allyl-7-(1,2,3,4-tetrahydroisoquinolin-2-yl)-2,3-dimethyl-1H-pyrrolo[2,3-c]pyridine methanesulfonate] was run?
Answer: The IC50 was 4 nM.

Question: `C=CCn1c(C)c(C)c2ccnc(N3CCc4ccccc4C3)c21` [Example 489, 1-allyl-7-(1,2,3,4-tetrahydroisoquinolin-2-yl)-2,3-dimethyl-1H-pyrrolo[2,3-c]pyridine p-toluenesulfonate] was tested. Which IC50 did it give?
Answer: Its IC50 is 3 nM.

Question: With `C=CCn1c(C)c(C)c2ccnc(N3CCc4ccccc4C3)c21` [Example 490, 1-allyl-7-(1,2,3,4-tetrahydroisoquinolin-2-yl)-2,3-dimethyl-1H-pyrrolo[2,3-c]pyridine nitrate] as the molecule, how does the IC50 read?
Answer: Its IC50 is 3 nM.

— patent publication US7662832B2, “Pyrrolo[2,3-c]pyridine derivatives and processes for the preparation thereof” (priority 2004, dated 2010)
